Inhibition and EC50 data for 10 compounds are collected here from ChEMBL document CHEMBL1146747, “Novel lopinavir analogues incorporating heterocyclic replacements of six-member cyclic urea--synthesis and structure-activity relationships” (Bioorg Med Chem Lett, 2004).

Molecules are shown by their SMILES.

The first assay concerns the target Human immunodeficiency virus type 1 protease (Human immunodeficiency virus 1) (UniProt Q72874). Briefly: Inhibitory activity (0.5 nM) against Protease.
Consider `Cc1cccc(C)c1OCC(=O)N[C@@H](Cc1ccccc1)[C@@H](O)C[C@H](Cc1ccccc1)NC(=O)[C@H](C(C)C)N1CCNC(=O)C1=O`, for which the inhibition came to 73%.

For `Cc1cccc(C)c1OCC(=O)N[C@@H](Cc1ccccc1)[C@@H](O)C[C@H](Cc1ccccc1)NC(=O)[C@H](C(C)C)N1C(=O)CCC1=O`, the inhibition was determined as 58%.

Turning to `Cc1cccc(C)c1OCC(=O)N[C@@H](Cc1ccccc1)[C@@H](O)C[C@H](Cc1ccccc1)NC(=O)[C@H](C(C)C)N1CCNC1=O`, the inhibition was 93%.

On to `Cc1cccc(C)c1OCC(=O)N[C@@H](Cc1ccccc1)[C@@H](O)C[C@H](Cc1ccccc1)NC(=O)[C@H](C(C)C)N1CCOC1=O`, for which the inhibition is 87%.

Consider `Cc1cccc(C)c1OCC(=O)N[C@@H](Cc1ccccc1)[C@@H](O)C[C@H](Cc1ccccc1)NC(=O)[C@H](C(C)C)N1CCCC1=O`, for which the inhibition is 87%.

For `Cc1cccc(C)c1OCC(=O)N[C@@H](Cc1ccccc1)[C@@H](O)C[C@H](Cc1ccccc1)NC(=O)[C@H](C(C)C)N1CCCOC1=O`, the inhibition was 85%.

Compound `Cc1cccc(C)c1OCC(=O)N[C@@H](Cc1ccccc1)[C@@H](O)C[C@H](Cc1ccccc1)NC(=O)[C@H](C(C)C)N1CCC(=O)NC1=O` showed an inhibition of 100%.

`Cc1cccc(C)c1OCC(=O)N[C@@H](Cc1ccccc1)[C@@H](O)C[C@H](Cc1ccccc1)NC(=O)[C@H](C(C)C)N1CCN=C1S` yielded an inhibition of 63%.

With `Cc1cccc(C)c1OCC(=O)N[C@@H](Cc1ccccc1)[C@@H](O)C[C@H](Cc1ccccc1)NC(=O)[C@H](C(C)C)N1CCCN(C)C1=O`, the inhibition amounted to 80%.

The next assay has as its system MT4. The assay can be described thus: Tested for cytopathic effect of HIVIIIB in MT-4 cells in presence of 50% human serum. It counts as functional, cell-based.
Regarding `Cc1cccc(C)c1OCC(=O)N[C@@H](Cc1ccccc1)[C@@H](O)C[C@H](Cc1ccccc1)NC(=O)[C@H](C(C)C)N1CCNC(=O)C1=O`, the concentration for a half-maximal effect (EC50) was found to be 3050 nM.

Consider `Cc1cccc(C)c1OCC(=O)N[C@@H](Cc1ccccc1)[C@@H](O)C[C@H](Cc1ccccc1)NC(=O)[C@H](C(C)C)N1CCCNC1=O` [LOPINAVIR], for which the EC50 came out at 100 nM.

For `Cc1cccc(C)c1OCC(=O)N[C@@H](Cc1ccccc1)[C@@H](O)C[C@H](Cc1ccccc1)NC(=O)[C@H](C(C)C)N1C(=O)CCC1=O`, the EC50 amounted to 2510 nM.

As to `Cc1cccc(C)c1OCC(=O)N[C@@H](Cc1ccccc1)[C@@H](O)C[C@H](Cc1ccccc1)NC(=O)[C@H](C(C)C)N1CCNC1=O`, the EC50 worked out at 70 nM.

`Cc1cccc(C)c1OCC(=O)N[C@@H](Cc1ccccc1)[C@@H](O)C[C@H](Cc1ccccc1)NC(=O)[C@H](C(C)C)N1CCOC1=O`: the EC50 stood at 110 nM.

Regarding `Cc1cccc(C)c1OCC(=O)N[C@@H](Cc1ccccc1)[C@@H](O)C[C@H](Cc1ccccc1)NC(=O)[C@H](C(C)C)N1CCCC1=O`, the EC50 turned out to be 310 nM.

On to `Cc1cccc(C)c1OCC(=O)N[C@@H](Cc1ccccc1)[C@@H](O)C[C@H](Cc1ccccc1)NC(=O)[C@H](C(C)C)N1CCCOC1=O`, for which the EC50 amounted to 270 nM.

For the compound `Cc1cccc(C)c1OCC(=O)N[C@@H](Cc1ccccc1)[C@@H](O)C[C@H](Cc1ccccc1)NC(=O)[C@H](C(C)C)N1CCC(=O)NC1=O`, the EC50 turned out to be 140 nM.

For `Cc1cccc(C)c1OCC(=O)N[C@@H](Cc1ccccc1)[C@@H](O)C[C@H](Cc1ccccc1)NC(=O)[C@H](C(C)C)N1CCN=C1S`, the EC50 was 3800 nM.

Turning to `Cc1cccc(C)c1OCC(=O)N[C@@H](Cc1ccccc1)[C@@H](O)C[C@H](Cc1ccccc1)NC(=O)[C@H](C(C)C)N1CCCN(C)C1=O`, the EC50 was determined as 1060 nM.

As a reminder, the inhibition is the share of the control response that was lost under treatment. By EC50 is commonly meant the concentration giving half of the maximal effect.
